The subject of experiment [1] is extraneous viable bacteria and fungi. Description: 9CFR 113.27 purity test after sanitization of oocysts. To be noted: sanitized E. maxima oocysts. The protocol: (§1) An experiment was performed to investigate the utility of the sporulation medium described in Example 3 as a sanitization reagent. E. maxima oocysts were produced in broilers and purified using a density flotation technique. Oocysts were sporulated for 72 h using 10% citric acid, 0.25% propionic acid, 0.75% hydrogen peroxide, and 1 mL/L Antifoam A. After sporulation, the oocysts were centrifuged and resuspended in sterile-filtered sporulation medium (10% citric acid, 0.25% propionic acid, 0.75% hydrogen peroxide, 1 mL/L Antifoam A) and incubated overnight at room temperature with stirring. After sanitization, buffer exchange was accomplished via diafiltration using 200 mM potassium phosphate, pH 7, followed by PBS without preservatives. The bulk sample was stored in glass bottles approximately one-third full at 4° C. Subsamples of the final product were sent to a commercial testing laboratory for purity tests according to U.S. Department of Agriculture (USDA) guidelines.
(§2) Two experimental batches of E. maxima oocysts were prepared (Run A and Run B). Each batch was purified using sieving and flotation procedures. Each batch was then split and two methods of sanitization were tested (sodium hypochlorite and hydrogen peroxide with citric acid and propionic acid). Samples from each test were subjected to several purity tests including 9CFR tests and two PCR methods for virus detection.

In experiment [2] the test system is mycoplasma. Description: 9CFR 113.28 purity test after sanitization of oocysts. To be noted: sanitized E. maxima oocysts. The protocol: as §1, §2
Experiment [3] deals with salmonella. Description: 9CFR 113.30 purity test after sanitization of oocysts. As to conditions: sanitized E. maxima oocysts. Here is the method:
as §1, §2

Experiment [4] deals with avian lymphoid leukosis. As to conditions: sanitized E. maxima oocysts.
Description: E. maxima oocysts were produced in broilers and purified using a density flotation technique. […] After sanitization, buffer exchange was accomplished via diafiltration using 200 mM potassium phosphate, pH 7, followed by PBS without preservatives. The bulk sample was stored in glass bottles approximately one-third full at 4° C. Subsamples of the final product were sent to a commercial testing laboratory for purity tests according to U.S. Department of Agriculture (USDA) guidelines.
Experiment [5] deals with hemagglutinating virus. Briefly: 9CFR 113.34 purity test after sanitization of oocysts. To be noted: sanitized E. maxima oocysts. Here is the method: as §1, §2
For experiment [6], the system named is Extraneous agents in master seed. Description: 9CFR 113.55 purity test after sanitization of oocysts. To be noted: sanitized E. maxima oocysts. The protocol:
as §2

The subject of experiment [7] is Chicken Infectious Anemia Virus. Description: PCR virus detection after sanitization of oocysts. To be noted: sanitized E. maxima oocysts. Here is the method:
as §2

Experiment [8] concerns Reticuloendothelial Virus. Description: PCR virus detection after sanitization of oocysts. To be noted: sanitized E. maxima oocysts. The protocol:
as §2

For experiment [9], the system named is Scopulariopsis brumptii. Briefly: Fungistatic or fungicidal properties of reagents (TSB flasks, then MEA plates). As to Growth in TSB Flasks (Day 28): key: −: no growth was observed; +: growth was observed. As to Growth on MEA plates (Day 14): key: −: no growth was observed; +: growth was observed. To be noted: for Growth on MEA plates (Day 14): 1 mL of flask plated on day 28 onto MEA plate, 14 days; for Growth on MEA plates (Day 14) / Growth in TSB Flasks (Day 28): room temperature; for Growth in TSB Flasks (Day 28): TSB flasks inoculated with fungal stock, 28 days; for fungistatic / fungicidal assessment: flask and plate tests taken together. It is filed as cell-based. Here is the method:
An experiment was conducted to assess the fungistatic or fungicidal properties of the reagents used in the collection and sporulation medium described in Example 3. Initial sterility tests were performed using trypticase soy broth (TSB). A fungal stock was created by suspending fungal scrapings from a Scopulariopsis brumptii stock culture into 25 mL PBS and filtering this material through a coarse Swinney filter (˜100 μm). Two hundred […] of this fungal stock was inoculated into three TSB flasks for treatments (Trt) 2-11.
Treatments evaluated various of the components of the collection/sporulation/sanitization medium described in Example 3, either alone or in combination. Sodium propionate was also tested in addition to propionic acid. Treatments were evaluated at room temperature for 28 days; then, on day 28 of incubation, one mL of each replicate flask for all treatments was plated onto a malt extract agar (MEA) plate with chloramphenicol (50 μg/mL) and penicillin-G (100 U/mL) and incubated at room temperature for 14 days.

Read-outs that look alike come from different tables or passages of the source.

Consider 6 compounds from patent US9107865B2, “Methods for producing oocysts” (Zoetis Services LLC, priority 2001, dated 2015).

Regarding `[Na+].[O-]Cl` [Hypochlorite, sodium hypochlorite], the “9CFR 113.27 Detection of extraneous viable bacteria and fungi in live vaccine” value is given as “Negative” in [1] (Example 6, Run A) and “Negative” in [1] (Example 6, Run B). Besides, the “9CFR 113.28 Detection of mycoplasma” value in experiment [2] (Example 6, Run A) is “Negative”; in experiment [2] (Example 6, Run B), “Negative”. Besides, the “9CFR 113.30 Detection of salmonella” value in [3] (Example 6, Run A) is given as “Negative”; in experiment [3] (Example 6, Run B) it was “Negative”. The “9CFR 113.31 Detection of avian lymphoid leucosis” value is given as “Negative” in experiment [4] (Example 6, Run A) and “Negative” in experiment [4] (Example 6, Run B). The “9CFR 113.34 Detection of hemagglutinating virus” value in [5] (Example 6, Run A) is recorded as “Negative”; in experiment [5] (Example 6, Run B) it was “Negative”. The “9CFR 113.55 Extraneous agents in master seed” value in experiment [6] (Example 6, Run A) is listed as “Negative”; in experiment [6] (Example 6, Run B), “Negative”. Further, the “Chicken Infectious Anemia Virus by PCR” value is reported as “Negative” in [7] (Example 6, Run A) and “Negative” in experiment [7] (Example 6, Run B). In addition, the “Reticuloendothelial Virus by PCR” value was “Negative” in [8] (Example 6, Run A) and “Negative” in experiment [8] (Example 6, Run B).
For the compound `CCC(=O)[O-].[Na+]` [Trt 10, sodium propionate], in experiment [9], the “Growth on MEA plates (Day 14)” value is “+” and the “Growth in TSB Flasks (Day 28)” value is on record as “+”.
Consider `CCC(=O)O` [Trt 4, propionic acid], for which, in experiment [9], the “Growth on MEA plates (Day 14)” value was “+”, the “Growth in TSB Flasks (Day 28)” value is reported as “−” and the “fungistatic / fungicidal assessment” value was “fungistatic”.
`CCC(=O)[O-].[Na+]` [sodium propionate]: the “fungistatic / fungicidal assessment” value in experiment [9] was “did not inhibit fungal growth”.
Turning to `OO` [Trt 3, hydrogen peroxide], in experiment [9], the “Growth on MEA plates (Day 14)” value is given as “−” and the “Growth in TSB Flasks (Day 28)” value is “−”.
In the case of `O=C(O)CC(O)(CC(=O)O)C(=O)O` [Trt 5, citric acid], in [9], the “Growth on MEA plates (Day 14)” value was “−” and the “Growth in TSB Flasks (Day 28)” value is “−”.
